Test results reported in PubChem BioAssay AID1963853 (Molecular Pharmacology Branch, DTP, NCI, 2024).

Tested on: 266295-075-R-J1-PDC spheroid viability
Assay: Anticancer human tumor 266295-075-R-J1-PDC patient-derived head and neck squamous carcinoma cell line growth inhibition [POLQ]
Conditions: spheroids with HUVEC and MSC; for IC50: curve of first compound; for viability, T/C: stronger effect = lower value
Summary of the method: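 Patient-derived tumour cells were co-cultured with HUVEC and mesenchymal stem cells as multicellular spheroids at 37 °C. They were treated with POLQ inhibitors (novobiocin, ART-558, RP6685) alone or combined with other agents. Top concentrations were at or near clinical Cmax (otherwise 10 microM; SN-38 at 1 microM), decreasing in half-log steps.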

[1] = second compound 0.0316 µM, first compound 0.0316 µM
[2] = second compound 0.0316 µM, first compound 0.1 µM
[3] = second compound 0.0316 µM, first compound 0.316 µM
[4] = second compound 0.0316 µM, first compound 1 µM
[5] = second compound 0.0316 µM, first compound 3.16 µM
[6] = second compound 0.0316 µM, first compound 10 µM
[7] = second compound 0.1 µM, first compound 0.0316 µM
[8] = second compound 0.1 µM, first compound 0.1 µM
[9] = second compound 0.1 µM, first compound 0.316 µM
[10] = second compound 0.1 µM, first compound 1 µM
[11] = second compound 0.1 µM, first compound 3.16 µM
[12] = second compound 0.1 µM, first compound 10 µM
[13] = second compound 0.316 µM, first compound 0.0316 µM
[14] = second compound 0.316 µM, first compound 0.1 µM
[15] = second compound 0.316 µM, first compound 0.316 µM
[16] = second compound 0.316 µM, first compound 1 µM
[17] = second compound 0.316 µM, first compound 3.16 µM
[18] = second compound 0.316 µM, first compound 10 µM
[19] = second compound 1 µM, first compound 0.0316 µM
[20] = second compound 1 µM, first compound 0.1 µM
[21] = second compound 1 µM, first compound 0.316 µM
[22] = second compound 1 µM, first compound 1 µM
[23] = second compound 1 µM, first compound 3.16 µM
[24] = second compound 1 µM, first compound 10 µM
[25] = second compound 3.16 µM, first compound 0.0316 µM
[26] = second compound 3.16 µM, first compound 0.1 µM
[27] = second compound 3.16 µM, first compound 0.316 µM
[28] = second compound 3.16 µM, first compound 1 µM
[29] = second compound 3.16 µM, first compound 3.16 µM
[30] = second compound 3.16 µM, first compound 10 µM
[31] = second compound 10 µM, first compound 0.0316 µM
[32] = second compound 10 µM, first compound 0.1 µM
[33] = second compound 10 µM, first compound 0.316 µM
[34] = second compound 10 µM, first compound 1 µM
[35] = second compound 10 µM, first compound 3.16 µM
[36] = second compound 10 µM, first compound 10 µM
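Note: spheroids exposed to compounds for seven days before readout.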

With `COc1ccc([C@@H](O)c2cc(-c3ncnc4cc(N5CCOCC5)ccc34)c(F)cc2Cl)nn1` + COC1C(OC(N)=O)C(O)C(Oc2ccc3c(O)c(NC(=O)c4ccc(O)c(CC=C(C)C)c4)c(=O)oc3c2C)OC1(C)C as the compound, how does the IC50 (second compound 0.0316 µM) read?
Its IC50 is 3.45 µM.

And the IC50 (second compound 0.1 µM)?
The IC50 was 4.06 µM.

And the IC50 (second compound 0.316 µM)?
The IC50 was 4.31 µM.

What about the IC50 (second compound 1 µM) of the same compound?
Its IC50 is 3.67 µM.

And the IC50 (second compound 3.16 µM)?
The IC50 was 2.48 µM.

And the IC50 (second compound 10 µM)?
The IC50 was 2.74 µM.

And the viability, T/C [1]?
Its viability, T/C is 97.3%.

What about the viability, T/C [2] of the same compound?
Its viability, T/C is 84.5%.

And the viability, T/C [3]?
Its viability, T/C is 76.6%.

What about the viability, T/C [4] of the same compound?
Its viability, T/C is 62.7%.

What about the viability, T/C [5] of the same compound?
Its viability, T/C is 49.9%.

What about the viability, T/C [6] of the same compound?
Its viability, T/C is 40.7%.

And the viability, T/C [7]?
Its viability, T/C is 107%.

What about the viability, T/C [8] of the same compound?
Its viability, T/C is 105%.

And the viability, T/C [9]?
Its viability, T/C is 73.1%.

What about the viability, T/C [10] of the same compound?
The viability, T/C was 74.5%.

And the viability, T/C [11]?
The viability, T/C was 47.5%.

And the viability, T/C [12]?
Its viability, T/C is 43.7%.

What about the viability, T/C [13] of the same compound?
Its viability, T/C is 104%.

And the viability, T/C [14]?
The viability, T/C was 85.9%.

And the viability, T/C [15]?
Its viability, T/C is 75.2%.

What about the viability, T/C [16] of the same compound?
Its viability, T/C is 64.7%.

And the viability, T/C [17]?
The viability, T/C was 51.8%.

And the viability, T/C [18]?
The viability, T/C was 43.4%.

What about the viability, T/C [19] of the same compound?
Its viability, T/C is 91.1%.

What about the viability, T/C [20] of the same compound?
Its viability, T/C is 96%.

What about the viability, T/C [21] of the same compound?
Its viability, T/C is 68.2%.

And the viability, T/C [22]?
Its viability, T/C is 73.6%.

What about the viability, T/C [23] of the same compound?
The viability, T/C was 48.2%.

And the viability, T/C [24]?
Its viability, T/C is 39.8%.

And the viability, T/C [25]?
The viability, T/C was 95.9%.

What about the viability, T/C [26] of the same compound?
Its viability, T/C is 84.6%.

And the viability, T/C [27]?
The viability, T/C was 83.2%.

And the viability, T/C [28]?
Its viability, T/C is 62.2%.

And the viability, T/C [29]?
The viability, T/C was 46%.

What about the viability, T/C [30] of the same compound?
Its viability, T/C is 40.2%.

And the viability, T/C [31]?
Its viability, T/C is 112%.

What about the viability, T/C [32] of the same compound?
The viability, T/C was 75%.

And the viability, T/C [33]?
The viability, T/C was 75.2%.

What about the viability, T/C [34] of the same compound?
Its viability, T/C is 63%.

And the viability, T/C [35]?
Its viability, T/C is 50.9%.

What about the viability, T/C [36] of the same compound?
The viability, T/C was 37.3%.

Which results are given for `C=CCn1c(=O)c2cnc(Nc3ccc(N4CCN(C)CC4)cc3)nc2n1-c1cccc(C(C)(C)O)n1` + Cc1cccc(N(C)C(=O)C2C(O)CCN2c2nc(C)cc(C(F)(F)F)c2C#N)c1?
IC50 (second compound 0.0316 µM): > 1 µM; IC50 (second compound 0.1 µM): > 1 µM; IC50 (second compound 0.316 µM): > 1 µM; IC50 (second compound 1 µM): > 1 µM; IC50 (second compound 3.16 µM): > 1 µM; IC50 (second compound 10 µM): > 1 µM; viability, T/C (second compound 0.0316 µM, first compound 0.00316 µM): 97.4%; viability, T/C (second compound 0.0316 µM, first compound 0.01 µM): 97.7%; viability, T/C [1]: 112%; viability, T/C [2]: 101%; viability, T/C [3]: 80%; viability, T/C [4]: 62.5%; viability, T/C (second compound 0.1 µM, first compound 0.00316 µM): 101%; viability, T/C (second compound 0.1 µM, first compound 0.01 µM): 115%; viability, T/C [7]: 111%; viability, T/C [8]: 127%; viability, T/C [9]: 79.4%; viability, T/C [10]: 63%; viability, T/C (second compound 0.316 µM, first compound 0.00316 µM): 119%; viability, T/C (second compound 0.316 µM, first compound 0.01 µM): 116%; viability, T/C [13]: 99.7%; viability, T/C [14]: 131%; viability, T/C [15]: 81.7%; viability, T/C [16]: 64.7%; viability, T/C (second compound 1 µM, first compound 0.00316 µM): 114%; viability, T/C (second compound 1 µM, first compound 0.01 µM): 104%; viability, T/C [19]: 119%; viability, T/C [20]: 78.4%; viability, T/C [21]: 77.4%; viability, T/C [22]: 63.6%; viability, T/C (second compound 3.16 µM, first compound 0.00316 µM): 118%; viability, T/C (second compound 3.16 µM, first compound 0.01 µM): 93.6%; viability, T/C [25]: 91.6%; viability, T/C [26]: 116%; viability, T/C [27]: 68.8%; viability, T/C [28]: 71.5%; viability, T/C (second compound 10 µM, first compound 0.00316 µM): 137%; viability, T/C (second compound 10 µM, first compound 0.01 µM): 117%; viability, T/C [31]: 102%; viability, T/C [32]: 128%; viability, T/C [33]: 87.7%; viability, T/C [34]: 81.8%

For `Nc1ccn(C2OC(CO)C(O)C2(F)F)c(=O)n1` (stereo unspecified) + Nc1ccc(C#CCN(C(=O)Cc2ncc(C(F)(F)F)cc2C(F)(F)F)c2ccc(F)cc2)nn1, which IC50 (second compound 0.0316 µM) is on record?
Its IC50 is over 10 µM.

What about the IC50 (second compound 0.1 µM) of the same compound?
The IC50 was over 10 µM.

What about the IC50 (second compound 0.316 µM) of the same compound?
The IC50 was over 10 µM.

And the IC50 (second compound 1 µM)?
Its IC50 is over 10 µM.

What about the IC50 (second compound 3.16 µM) of the same compound?
Its IC50 is over 10 µM.

What about the IC50 (second compound 10 µM) of the same compound?
The IC50 was over 10 µM.

And the viability, T/C [1]?
The viability, T/C was 100%.

What about the viability, T/C [2] of the same compound?
Its viability, T/C is 106%.

What about the viability, T/C [3] of the same compound?
Its viability, T/C is 81.6%.

And the viability, T/C [4]?
The viability, T/C was 77%.

What about the viability, T/C [5] of the same compound?
Its viability, T/C is 93.7%.

What about the viability, T/C [6] of the same compound?
The viability, T/C was 85.3%.

And the viability, T/C [7]?
The viability, T/C was 112%.

What about the viability, T/C [8] of the same compound?
The viability, T/C was 98.8%.

What about the viability, T/C [9] of the same compound?
Its viability, T/C is 72.6%.

And the viability, T/C [10]?
Its viability, T/C is 96.5%.

What about the viability, T/C [11] of the same compound?
The viability, T/C was 92.1%.

What about the viability, T/C [12] of the same compound?
The viability, T/C was 80.4%.

And the viability, T/C [13]?
The viability, T/C was 105%.

What about the viability, T/C [14] of the same compound?
Its viability, T/C is 88%.

And the viability, T/C [15]?
Its viability, T/C is 78.5%.

What about the viability, T/C [16] of the same compound?
The viability, T/C was 94.8%.

What about the viability, T/C [17] of the same compound?
Its viability, T/C is 95.7%.

What about the viability, T/C [18] of the same compound?
Its viability, T/C is 82%.

What about the viability, T/C [19] of the same compound?
Its viability, T/C is 105%.

What about the viability, T/C [20] of the same compound?
Its viability, T/C is 82.9%.

What about the viability, T/C [21] of the same compound?
Its viability, T/C is 92%.

And the viability, T/C [22]?
The viability, T/C was 101%.

And the viability, T/C [23]?
Its viability, T/C is 94.3%.

What about the viability, T/C [24] of the same compound?
The viability, T/C was 82.5%.

What about the viability, T/C [25] of the same compound?
Its viability, T/C is 124%.

And the viability, T/C [26]?
Its viability, T/C is 94.2%.

What about the viability, T/C [27] of the same compound?
Its viability, T/C is 90.5%.

And the viability, T/C [28]?
Its viability, T/C is 95.1%.

What about the viability, T/C [29] of the same compound?
The viability, T/C was 83.7%.

And the viability, T/C [30]?
Its viability, T/C is 75.7%.

And the viability, T/C [31]?
Its viability, T/C is 93.2%.

And the viability, T/C [32]?
Its viability, T/C is 101%.

And the viability, T/C [33]?
The viability, T/C was 82.8%.

What about the viability, T/C [34] of the same compound?
The viability, T/C was 89.7%.

What about the viability, T/C [35] of the same compound?
The viability, T/C was 75.5%.

What about the viability, T/C [36] of the same compound?
Its viability, T/C is 72.2%.
